Test results published in ChEMBL document CHEMBL5303304, “EUbOPEN Chemogenomics Library - IncuCyte” (2023).

Experiments:
Type in all cases: toxicity, cell-based
HEK-293T = assay: Incucyte cell viability with HEK293T; settings: human, 10 µM, compound concentration 10 uM
Fibroblast = assay: Incucyte cell viability with human fibroblast; settings: 10 µM, compound concentration 10 uM
U2OS = assay: Incucyte cell viability with U2OS; settings: human, 10 µM, compound concentration 10 uM
Further: unitless GR value; below 1 slowed growth and below 0 cell loss.

| Compound | Growth Rate (HEK-293T; 6 h, replicate number 1) | Growth Rate (HEK-293T; 6 h, replicate number 2) | Growth Rate (HEK-293T; 12 h, replicate number 1) | Growth Rate (HEK-293T; 12 h, replicate number 2) | Growth Rate (HEK-293T; 18 h, replicate number 1) | Growth Rate (HEK-293T; 24 h, replicate number 1) | Growth Rate (Fibroblast; 0 h, replicate number 2) | Growth Rate (Fibroblast; 24 h, replicate number 1) | Growth Rate (U2OS; 24 h, replicate number 1) | Growth Rate (HEK-293T; 18 h, replicate number 2) | Growth Rate (HEK-293T; 24 h, replicate number 2) | Growth Rate (Fibroblast; 0 h, replicate number 1) | Growth Rate (Fibroblast; 6 h, replicate number 2) | Growth Rate (U2OS; 6 h, replicate number 1) | Growth Rate (U2OS; 6 h, replicate number 2) | Growth Rate (U2OS; 12 h, replicate number 1) | Growth Rate (U2OS; 12 h, replicate number 2) | Growth Rate (U2OS; 18 h, replicate number 1) | Growth Rate (U2OS; 18 h, replicate number 2) | Growth Rate (U2OS; 24 h, replicate number 2) | other results |
| --- | --- | --- | --- | --- | --- | --- | --- | --- | --- | --- | --- | --- | --- | --- | --- | --- | --- | --- | --- | --- | --- |
| O=C(O)Cc1ccc(CCNS(=O)(=O)c2ccc(Cl)cc2)cc1 [DALTROBAN] | 0.23 | 0.8 | 0.38 | 0.95 | 0.67 | 0.72 | -0.53 | 0.99 | 0.96 |  |  |  |  |  |  |  |  |  |  |  |  |
| CCn1cnc2c(-c3ccc(F)c(-c4ccc(S(=O)(=O)CC)cc4OC)c3)cnnc21 [DARIGABAT] | -0.79 | -0.84 | -0.63 | -0.47 | -0.38 | -0.32 |  | -0.69 | 0.01 | -0.28 | -0.18 | -0.83 | -1 | -0.92 | -0.7 | -0.49 | -0.46 | -0.16 | -0.24 | -0.05 | Growth Rate (Fibroblast; 12 h, replicate number 1): 1; Growth Rate (Fibroblast; 12 h, replicate number 2): -0.93; Growth Rate (Fibroblast; 18 h, replicate number 1): -0.97; Growth Rate (Fibroblast; 18 h, replicate number 2): -0.67; Growth Rate (Fibroblast; 24 h, replicate number 2): -0.48; Growth Rate (U2OS; 0 h, replicate number 2): -0.95 |
| Cn1c(C2(NC(=O)c3ccc4c(C5CCCC5)c(-c5ncc(Br)cn5)n(C)c4c3)CCC2)nc2ccc(/C=C/C(=O)[O-])cc21.[Na+] [DELEOBUVIR SODIUM] |  |  |  |  | 0.92 | 0.94 | -0.22 |  |  | 0.81 | 0.8 |  | -0.13 |  |  |  | 0.79 |  | 0.92 | 0.93 | Growth Rate (HEK-293T; 0 h, replicate number 1): 0.69; Growth Rate (HEK-293T; 0 h, replicate number 2): 0.32 |
| Cn1c(C2(NC(=O)c3ccc4c(C5CCCC5)c(-c5ncc(Br)cn5)n(C)c4c3)CCC2)nc2ccc(/C=C/C(=O)O)cc21 [DELEOBUVIR] |  | 0.72 |  | 0.88 | 0.92 | 0.91 |  | 0.85 | 0.7 | 0.88 | 0.85 | -1 |  | 0.31 | 0.75 | 0.44 | 0.92 | 0.49 |  | 0.88 | Growth Rate (Fibroblast; 18 h, replicate number 1): 0.98 |
| [2H]C([2H])([2H])NC(=O)c1nnc(NC(=O)C2CC2)cc1Nc1cccc(-c2ncn(C)n2)c1OC [DEUCRAVACITINIB] | 0.66 | 0.51 | 0.82 | 0.56 | 0.78 | 0.85 | 0 |  | 0.97 | 0.68 | 0.76 | 0.51 |  | 0.29 | 0.63 | 0.68 | 0.76 | 0.89 | 0.71 | 0.74 | Growth Rate (HEK-293T; 0 h, replicate number 2): 0.09; Growth Rate (Fibroblast; 18 h, replicate number 2): 0.85; Growth Rate (Fibroblast; 24 h, replicate number 2): 0.9; Growth Rate (U2OS; 0 h, replicate number 1): 0.39 |
